Active and inactive are the calls of the source. The calls are words filed in the database; no cut-off is given here.
Experiments:
MDA-MB-231 = experiment: Antiproliferative activity against human MDA-MB-231 cells assessed as inhibition of cell growth measured after 24 hrs by MTT assay; type: functional, cell-based; conditions: MDA-MB-231, 24 h
[1] = Cytotoxicity against human MCF-10A cells assessed as inhibition of cell growth measured after 24 hrs by MTT assay; type: toxicity, cell-based
T47D = experiment: Antiproliferative activity against human T47D cells assessed as inhibition of cell growth measured after 24 hrs by MTT assay; type: functional, cell-based
[2] = target: T1, Nuclear receptor subfamily 4immunitygroup A member 1 (Homo sapiens, UniProt P22736); experiment: Binding affinity to His-tagged Nur77 ligand binding domain (unknown origin) at 10 uM by surface plasmon resonance assay; conditions: filed as modulator
T1 sequence (P22736 whole entry, the tested form may be a part): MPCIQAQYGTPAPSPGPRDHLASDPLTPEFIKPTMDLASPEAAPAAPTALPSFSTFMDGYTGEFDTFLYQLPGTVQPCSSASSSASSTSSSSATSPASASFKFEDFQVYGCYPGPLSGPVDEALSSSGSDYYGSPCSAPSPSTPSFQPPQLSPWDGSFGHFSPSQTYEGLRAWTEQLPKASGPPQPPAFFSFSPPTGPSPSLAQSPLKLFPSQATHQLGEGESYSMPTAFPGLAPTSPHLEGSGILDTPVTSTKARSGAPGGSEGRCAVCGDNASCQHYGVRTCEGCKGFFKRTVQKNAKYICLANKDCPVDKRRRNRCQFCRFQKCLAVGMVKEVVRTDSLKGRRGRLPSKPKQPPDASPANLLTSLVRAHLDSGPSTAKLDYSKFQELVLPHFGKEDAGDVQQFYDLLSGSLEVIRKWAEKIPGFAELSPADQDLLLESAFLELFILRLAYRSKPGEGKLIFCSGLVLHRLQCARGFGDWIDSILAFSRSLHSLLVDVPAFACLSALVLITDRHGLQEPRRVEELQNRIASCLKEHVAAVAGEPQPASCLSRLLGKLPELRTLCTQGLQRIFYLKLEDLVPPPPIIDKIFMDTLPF

[3] = target: T1, Nuclear receptor subfamily 4immunitygroup A member 1; experiment: Binding affinity to His-tagged Nur77 ligand binding domain (unknown origin) by surface plasmon resonance assay
[4] = target: T1, Nuclear receptor subfamily 4immunitygroup A member 1; experiment: Antagonist activity at Nur77 ligand binding domain (unknown origin) transfected in HEK293T cells cotransfected with pG5-Luc assessed as inhibition of receptor transcriptional activity at 2 uM measured after 12 hrs by luciferase reporter gene assay; type: cell-based; conditions: filed as antagonist
[5] = Toxicity in Zebra fish AB embryo assessed as mortality rate at 1.25 to 5 uM measured after 24 hrs; parameters: species or system Danio rerio; conditions: zebrafish, dose 1.25-5 µM
[6] = Toxicity in Zebra fish AB embryo assessed as mortality rate at 1.25 uM measured after 24 to 72 hrs; parameters: species or system Danio rerio; conditions: AB, zebrafish, time 24-72 hrs

Row | Structure (SMILES) | IC50 (MDA-MB-231) [µM] | IC50 at 24 h [1] [µM] | IC50 (T47D) [µM] | Activity [2] | Kd [3] [µM] | inhibition [4] | mortality at 24 h, up to 5 µM [5] [%] | mortality at 1.25 µM [6] [%]
1 | CCCCN(CCCC)CCCNC(=O)c1cc2cc(Nc3nccc(-c4ccccc4)n3)ccc2[nH]1 | 7.8 | 4.96 | 15.2 | – | – | – | – | –
2 | CCN(CC)CCCNC(=O)c1cc2cc(Nc3nccc(-c4ccccc4)n3)ccc2[nH]1 | 7.24 | 13 | 3.24 | Active | – | – | – | –
3 | CN(C)CCCNC(=O)c1cc2cc(Nc3nccc(-c4cc(OCc5ccccc5)cc(OCc5ccccc5)c4)n3)ccc2[nH]1 | 1.69 | 3.9 | 11.4 | – | – | – | – | –
4 | CCCCN(CCCC)CCCNC(=O)c1cc2cc(Nc3nccc(-c4cccnc4)n3)ccc2[nH]1 | 4.3 | 6.48 | 10.6 | Active | – | – | – | –
5 | CCN(CC)CCCNC(=O)c1cc2cc(Nc3nccc(-c4cccs4)n3)ccc2[nH]1 | 3.27 | 14.3 | 8.41 | Active | – | – | – | –
6 | CCN(CC)CCCNC(=O)c1cc2cc(Nc3nccc(-c4ccc(OC)c(OC)c4)n3)ccc2[nH]1 | 5.98 | 3.57 | 11.4 | Active | – | – | – | –
7 | CCN(CC)CCCNC(=O)c1cc2cc(Nc3nccc(-c4ccc(Cl)s4)n3)ccc2[nH]1 | 6.7 | 5.54 | 2.3 | Active | – | – | – | –
8 | Cc1nc(-c2ccnc(Nc3ccc4[nH]c(C(=O)NCCN5CCOCC5)cc4c3)n2)c(C)s1 | > 20 | 15.4 | > 20 | – | – | – | – | –
9 | COc1ccc(-c2ccnc(Nc3ccc4[nH]c(C(=O)NCCN5CCN(C)CC5)cc4c3)n2)cc1OC | 17.4 | > 20 | 14.4 | – | – | – | – | –
10 | CCN(CC)CCCNC(=O)c1cc2cc(Nc3nccc(-c4nc(C)sc4C)n3)ccc2[nH]1 | > 20 | 19.2 | > 20 | Active | – | – | – | –
11 | CCN(CC)CCCNC(=O)c1cc2cc(Nc3nccc(-c4ccc(C(F)(F)F)cc4)n3)ccc2[nH]1 | 6.52 | 6.57 | 6.19 | – | – | – | – | –
12 | Cc1nc(-c2ccnc(Nc3ccc4[nH]c(C(=O)NCCN(C)C)cc4c3)n2)c(C)s1 | > 20 | 15 | 3.65 | Active | – | – | – | –
13 | Cc1nc(-c2ccnc(Nc3ccc4[nH]c(C(=O)NCCN5CCCC5)cc4c3)n2)c(C)s1 | > 20 | > 20 | > 20 | – | – | – | – | –
14 | COc1ccccc1-c1ccnc(Nc2ccc3[nH]c(C(=O)NCCCN(C)C)cc3c2)n1 | 4.79 | > 20 | > 20 | – | – | – | – | –
15 | CCN(CC)CCCNC(=O)c1cc2cc(Nc3nccc(-c4cccc(OCc5ccccc5)c4)n3)ccc2[nH]1 | > 20 | > 20 | > 20 | – | – | – | – | –
16 | O=C(NCCN1CCCCC1)c1cc2cc(Nc3nccc(-c4cccc(OCc5ccccc5)c4)n3)ccc2[nH]1 | 5.41 | 1.76 | > 20 | – | – | – | – | –
17 | CN(C)CCNC(=O)c1cc2cc(Nc3nccc(-c4ccc(C(F)(F)F)cc4)n3)ccc2[nH]1 | 10.3 | 2.12 | 6.71 | – | – | – | – | –
18 | CN(C)CCCNC(=O)c1cc2ccc(Nc3nccc(-c4cccnc4)n3)cc2[nH]1 | 3.09 | > 20 | > 20 | Active | 0.354 | – | – | –

Row | Structure (SMILES) | IC50 (MDA-MB-231) [µM] | IC50 at 24 h [1] [µM] | IC50 (T47D) [µM] | Activity [2] | Kd [3] [µM] | inhibition [4] | mortality at 24 h, up to 5 µM [5] [%] | mortality at 1.25 µM [6] [%]
19 | O=C(N/N=C/c1ccncc1)c1ccc(Nc2ccnc3ccccc23)cc1 | – | – | – | – | 1.17 | – | – | –
20 | CN(C)CCNC(=O)c1cc2cc(Nc3nccc(-c4cccc(OCc5ccccc5)c4)n3)ccc2[nH]1 | > 20 | > 20 | > 20 | – | – | – | – | –
21 | CCCCCNC(=O)c1cc2cc(Nc3nccc(-c4ccccc4)n3)ccc2[nH]1 | 17.3 | > 20 | > 20 | Active | – | – | – | –
22 | CN(C)CCCNC(=O)c1cc2cc(Nc3nccc(-c4cccs4)n3)ccc2[nH]1 | > 20 | > 20 | 4.28 | Active | – | – | – | –
23 | CC1=C(O)C(=O)C=C2C1=CC=C1[C@@]2(C)CC[C@@]2(C)[C@@H]3C[C@](C)(C(=O)O)CC[C@]3(C)CC[C@]12C [CELASTROL] | – | 5.45 | > 20 | Active | – | Active | 100 | 100
24 | CCN(CC)CCCNC(=O)c1cc2cc(Nc3nccc(-c4cccnc4)n3)ccc2[nH]1 | 10.5 | > 20 | > 20 | – | – | – | – | –
25 | CN(C)CCNC(=O)c1cc2cc(Nc3nccc(-c4ccccc4)n3)ccc2[nH]1 | 8.04 | > 20 | > 20 | Active | – | – | – | –
26 | CN(C)CCNC(=O)c1cc2cc(Nc3nccc(-c4cccnc4)n3)ccc2[nH]1 | 3.12 | > 20 | > 20 | – | – | – | – | –
27 | COc1ccc2[nH]cc(CCNC(=O)c3cc4cc(Nc5nccc(-c6cccnc6)n5)ccc4[nH]3)c2c1 | 18.2 | > 20 | 8.36 | – | – | – | – | –
28 | COc1ccc(-c2ccnc(Nc3ccc4[nH]c(C(=O)NCCCN(C)C)cc4c3)n2)cc1OC | 2.58 | 15 | 6.01 | Active | – | – | – | –
29 | CN(C)CCCNC(=O)c1cc2cc(Nc3nccc(-c4ccc(C(F)(F)F)cc4)n3)ccc2[nH]1 | 0.91 | 2.09 | 9.23 | – | – | – | – | –
30 | CN(C)CCCNC(=O)c1cc2cc(Nc3nccc(-c4ccccc4)n3)ccc2[nH]1 | 8.87 | > 20 | 7.88 | Active | – | – | – | –
31 | CCN(CC)CCCNC(=O)c1cc2cc(Nc3nccc(-c4cc(OCc5ccccc5)cc(OCc5ccccc5)c4)n3)ccc2[nH]1 | > 20 | 2.89 | 1.89 | – | – | – | – | –
32 | COc1ccc(-c2ccnc(Nc3ccc4[nH]c(C(=O)NCCN5CCCC5)cc4c3)n2)cc1OC | 4.02 | 9.71 | 3.26 | – | – | – | – | –
33 | CN(C)CCCNC(=O)c1cc2cc(Nc3nccc(-c4ccc(Cl)s4)n3)ccc2[nH]1 | 6.14 | 7.43 | 4.29 | Active | – | – | – | –
34 | CCN(CC)CCCNC(=O)c1cc2cc(Nc3nccc(-c4ccccc4OC)n3)ccc2[nH]1 | 8.32 | > 20 | 13 | Active | – | – | – | –
35 | CC(C)N(CCNC(=O)c1cc2cc(Nc3nccc(-c4ccccc4)n3)ccc2[nH]1)C(C)C | 11.1 | 4.05 | 9.41 | – | – | – | – | –
36 | Cc1nc(-c2ccnc(Nc3ccc4[nH]c(C(=O)NCCCN(C)C)cc4c3)n2)c(C)s1 | > 20 | 15.9 | 16 | – | – | – | – | –

From ChEMBL document CHEMBL5344425, “Discovery of 5-(Pyrimidin-2-ylamino)-1H-indole-2-carboxamide Derivatives as Nur77 Modulators with Selective and Potent Activity Against Triple-Negative Breast Cancer” (J Med Chem, 2023)
